Patent EP4603105A1, “PHARMACEUTICAL COMPOSITION CONTAINING CYCLIC COMPOUND HAVING SELECTIVE KRAS INHIBITORY EFFECT AGAINST HRAS AND NRAS” (CHUGAI SEIYAKU KABUSHIKI KAISHA, priority 2022, dated 2024)
Where a SMILES comes first, the peptide text is derived from it. Bridges are numbered along the chain shown (N, C = ends). [ ]: non-standard residue; d: D form. The star is where a group is joined. hPhe(3-Cl-4-CF3) = N[C@@H](CCc1ccc(C(F)(F)F)c(Cl)c1)C(=O)O; NPrPhe(4-CF3) = CCCN[C@@H](Cc1ccc(C(F)(F)F)cc1)C(=O)O; NMeGly(cPent) = CN[C@H](C(=O)O)C1CCCC1; Pro(4,4-F2) = O=C(O)[C@@H]1CC(F)(F)CN1; Pro(4S-Me) = C[C@@H]1CN[C@H](C(=O)O)C1; NMeD = CN[C@@H](CC(=O)O)C(=O)O; NMeL = CN[C@@H](CC(C)C)C(=O)O; NMeNva = CCC[C@H](NC)C(=O)O; Morpholide = C1CN(*)CCO1; NMeA = CN[C@@H](C)C(=O)O; Ac5c = NC1(C(=O)O)CCCC1; Aze = O=C(O)[C@@H]1CCN1; Ac4c = NC1(C(=O)O)CCC1; NPrGly = CCCNCC(=O)O; NEtG = CCNCC(=O)O; Sar = CNCC(=O)O

How the values were obtained:
HRAS wild-type protein = HRAS wild-type protein (Homo sapiens, UniProt P01112); test: Binding to HRAS by surface plasmon resonance (SPR), KD and KD ratio to KRAS
In short: (§1)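 GDP-bound biotin-Avi RAS captured at ~100–300 RU, 30°C, pH 7.4 HBS containing 10 µM GDP, 10 mM MgCl2, 1 mM DTT, 0.01% Tween 20 and 4% DMSO. KD by 1:1 fitting.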

[1] = target: GDP-bound NRAS wild-type protein (Homo sapiens, UniProt P01111); test: Binding to NRAS by surface plasmon resonance (SPR), KD and KD ratio to KRAS
In short: as §1

[2] = system: human lung cancer strain NCI-H441; type: cell-based
In short: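 Readout: […] after the ATP-based reagent. Compound: serial dilutions in dimethyl sulfoxide.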

[3] = ratio of the KD value with respect to HRAS wild-type protein to the KD value with respect to KRAS
[4] = ratio of the KD value with respect to GDP-bound NRAS wild-type protein to the KD value with respect to KRAS
[5] = ratio of KD for HRAS wild-type protein to KD for KRAS
[6] = ratio of KD for GDP-bound NRAS wild-type protein to KD for KRAS
[7] = ratio of KD value for HRAS wild-type protein to KD value for KRAS (SPR)
[8] = ratio of KD value for GDP-bound NRAS wild-type protein to KD value for KRAS (SPR)

GDP-bound NRAS wild-type protein, sequence (P01111 whole entry): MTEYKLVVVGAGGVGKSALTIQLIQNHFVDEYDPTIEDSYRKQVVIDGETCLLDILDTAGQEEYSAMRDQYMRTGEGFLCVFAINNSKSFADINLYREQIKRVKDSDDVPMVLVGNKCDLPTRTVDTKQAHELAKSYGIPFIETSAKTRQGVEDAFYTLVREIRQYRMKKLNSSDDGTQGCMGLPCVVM
HRAS wild-type protein, sequence (P01112 whole entry): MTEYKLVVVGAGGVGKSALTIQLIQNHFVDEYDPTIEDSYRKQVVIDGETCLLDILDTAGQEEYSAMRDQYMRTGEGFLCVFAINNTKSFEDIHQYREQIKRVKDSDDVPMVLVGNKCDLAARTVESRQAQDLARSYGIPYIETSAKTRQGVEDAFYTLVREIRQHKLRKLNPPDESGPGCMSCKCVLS

Row | IC50 [2] [nM] | Structure (SMILES) | HRAS /KRAS (HRAS wild-type protein; [3]) | NRAS /KRAS [1, 4] | HRAS /KRAS (HRAS wild-type protein; [5]) | NRAS /KRAS [1, 6] | HRAS /KRAS (HRAS wild-type protein; [7]) | NRAS /KRAS [1, 8]
1 | 4.8 | CCCN1C(=O)CN(C)C(=O)CN(CC)C(=O)[C@H]([C@@H](C)CC)NC(=O)[C@H](CC(C)C)N(C)C(=O)C[C@@H](C(=O)N(C)C)N(C)C(=O)[C@H](C2CCCC2)N(C)C(=O)C2(CCC2)NC(=O)[C@@H]2CC(F)(F)CN2C(=O)[C@H](CCc2ccc(C(F)(F)F)c(Cl)c2)NC(=O)CN(C)C(=O)[C@@H]1Cc1ccc(C(F)(F)F)cc1 [PP0426] ([NMeL]I[NEtG][Sar][NPrPhe(4-CF3)][Sar][hPhe(3-Cl-4-CF3)][Pro(4,4-F2)][Ac4c][NMeGly(cPent)][NMeD]-NMe2; lactam N-11) | C (A compound having a KD ratio of 0.1 or more and less than 3 is denoted as C) | C (A compound having a KD ratio of 0.1 or more and less than 3 is denoted as C) |  |  |  | 
2 | 136 | CC[C@H](C)[C@@H]1NC(=O)[C@H](COC)N(C)C(=O)C[C@@H](C(=O)N2CCOCC2)N(C)C(=O)[C@H](C2CCCC2)N(C)C(=O)C2(CCCC2)NC(=O)[C@@H]2C[C@H](O)CN2C(=O)[C@H](CCc2cc(F)c(C(F)(F)F)c(F)c2)NC(=O)CN(C)C(=O)[C@H](Cc2ccc(C(F)(F)F)cc2)N2CCCCC[C@@H](C2=O)N(C)C(=O)CN(C)C1=O [PP0847] |  |  | B (a compound having 3 or more and less than 10 is denoted as B) | B (a compound having 3 or more and less than 10 is denoted as B) |  | 
3 | 111 | CCO[C@@H]1C[C@H]2C(=O)NC3(CCC3)C(=O)N(C)[C@@H](C3CCCC3)C(=O)N(C)[C@H](C(=O)N3CCOCC3)CC(=O)N(C)[C@@H](Cc3cccc(Cl)c3)C(=O)N[C@@H]([C@@H](C)CC)C(=O)N(C)CC(=O)N(C)[C@H]3CCCCCN(C3=O)[C@@H](Cc3ccc(C(F)(F)F)cc3)C(=O)N(C)CC(=O)N[C@@H](CCc3cc(F)c(C(F)(F)F)c(F)c3)C(=O)N2C1 [PP0857] |  |  | B (a compound having 3 or more and less than 10 is denoted as B) | B (a compound having 3 or more and less than 10 is denoted as B) |  | 
4 | 4 | CCO[C@@H]1C[C@H]2C(=O)N(C)C3(CCCC3)C(=O)N(C)[C@@H](C3CCCC3)C(=O)N(C)[C@H](C(=O)N(C)C)CC(=O)N(C)[C@@H](CC)C(=O)N[C@@H]([C@@H](C)CC)C(=O)N(C)CC(=O)N(C)[C@H]3C/C=C\CCN(C3=O)[C@@H](Cc3ccc(C)cc3)C(=O)N(C)CC(=O)N[C@@H](CCc3cc(F)c(C(F)(F)F)c(F)c3)C(=O)N2C1 [PP1806] |  |  |  |  | B (a compound having 3 or more and less than 10 is denoted as B) | A (a compound having 10 or more and less than 20 is denoted as A)
5 | 3.4 | CCC[C@H]1C(=O)N[C@@H]([C@@H](C)CC)C(=O)N(C)CC(=O)N(C)CC(=O)N(CCC)[C@@H](Cc2ccc(C(F)(F)F)cc2)C(=O)N(C)CC(=O)N[C@@H](CCc2ccc(C(F)(F)F)c(Cl)c2)C(=O)N2CC(F)(F)C[C@H]2C(=O)NC2(CCCC2)C(=O)N(C)[C@@H](C2CCCC2)C(=O)N(C)[C@H](C(=O)N2CCOCC2)CC(=O)N1C [PP0201] ([NMeNva]I[Sar][Sar][NPrPhe(4-CF3)][Sar][hPhe(3-Cl-4-CF3)][Pro(4,4-F2)][Ac5c][NMeGly(cPent)][NMeD]-Morpholide; lactam N-11) |  |  | C (A compound having a KD ratio of 0.1 or more and less than 3 is denoted as C) | B (a compound having 3 or more and less than 10 is denoted as B) |  | 
6 | 90.3 | CCC[C@H]1C(=O)N[C@@H]([C@@H](C)CC)C(=O)N(C)CC(=O)N(C)[C@H]2C/C=C\CCN(C2=O)[C@@H](Cc2ccc(C(F)(F)F)cc2)C(=O)N(C)CC(=O)N[C@@H](CCc2ccc(C(F)(F)F)c(Cl)c2)C(=O)N2CCOC[C@H]2C(=O)NC2(CC(C)(C)C2)C(=O)N(C)[C@@H](C(CC)CC)C(=O)N(C)[C@H](C(=O)N(C)C)CC(=O)N1C [PP2929] |  |  | A (a compound having 10 or more and less than 20 is denoted as A) | AA (a compound having 20 or more is denoted as AA) |  | 
7 | 10 | CCCN(C)C(=O)[C@@H]1CC(=O)N(C)[C@@H](CC(F)F)C(=O)N[C@@H]([C@@H](C)CC)C(=O)N(C)CC(=O)N(C)[C@H]2C/C=C\CCN(C2=O)[C@@H](Cc2ccc(C(F)(F)F)cc2)C(=O)N(C)CC(=O)N[C@@H](CCc2cc(F)c(C(F)(F)F)c(F)c2)C(=O)N2CCC[C@H]2C(=O)NC2(CC(C)(C)C2)C(=O)N(C)[C@@H](C2CCCC2)C(=O)N1C [PP1721] |  |  |  |  | A (a compound having 10 or more and less than 20 is denoted as A) | A (a compound having 10 or more and less than 20 is denoted as A)
8 | 1.5 | CC[C@H](C)[C@@H]1NC(=O)[C@H](CC(F)(F)F)N(C)C(=O)C[C@@H](C(=O)N(C)C)N(C)C(=O)[C@H](C2CCCC2)N(C)C(=O)C2(CC(C)(C)C2)NC(=O)[C@@H]2C[C@@H](F)CN2C(=O)[C@H](CCc2cc(F)c(C(F)(F)F)c(F)c2)NC(=O)CN(C)C(=O)[C@H](Cc2ccc(C(F)(F)F)cc2)N2CC/C=C\C[C@@H](C2=O)N(C)C(=O)CN(C)C1=O [PP1688] |  |  |  |  | A (a compound having 10 or more and less than 20 is denoted as A) | A (a compound having 10 or more and less than 20 is denoted as A)
9 | 12.4 | CCO[C@@H]1C[C@H]2C(=O)NC3(CC(C)(C)C3)C(=O)N(C)[C@@H](C(CC)CC)C(=O)N(C)[C@H](C(=O)N(C)C)CC(=O)N(C)[C@@H](CC(C)C)C(=O)N[C@@H]([C@@H](C)CC)C(=O)N(C)CC(=O)N(C)[C@H]3C/C=C\CCN(C3=O)[C@@H](Cc3ccc(C(F)(F)F)cc3)C(=O)N(C)CC(=O)N[C@@H](CCc3ccc(C(F)(F)F)c(OC)c3)C(=O)N2C1 [PP2161] | A (a compound having 10 or more and less than 20 is denoted as A) | AA (a compound having 20 or more is denoted as AA) |  |  |  | 
10 | 13 | CCO[C@@H]1C[C@H]2C(=O)NC3(CCC3)C(=O)N(C)[C@@H](C3CCCC3)C(=O)N(C)[C@H](C(=O)N(C)C)CC(=O)N(C)[C@@H](CC3CC3)C(=O)N[C@@H]([C@@H](C)CC)C(=O)N(C)CC(=O)N(C)[C@H]3C/C=C\CCN(C3=O)[C@@H](Cc3ccc(C(F)(F)F)cc3)C(=O)N(C)CC(=O)N[C@@H](CCc3cc(F)c(C(F)(F)F)c(F)c3)C(=O)N2C1 [PP1111] |  |  | A (a compound having 10 or more and less than 20 is denoted as A) | A (a compound having 10 or more and less than 20 is denoted as A) |  | 
11 | 6.9 | CC[C@H](C)[C@@H]1NC(=O)[C@@H]2CCCc3ccc(cc3)C[C@@H](C(=O)N(C)CC(=O)N[C@@H](CCc3ccc(C(F)(F)F)c(OC)c3)C(=O)N3CC4(CC4)C[C@H]3C(=O)NC3(CC(C)(C)C3)C(=O)N(C)[C@@H](C3CCCC3)C(=O)N(C)[C@H](C(=O)N(C)CC)CC(=O)N2C)N2CC/C=C\C[C@@H](C2=O)N(C)C(=O)CN(C)C1=O [PP3087] |  |  | B (a compound having 3 or more and less than 10 is denoted as B) | A (a compound having 10 or more and less than 20 is denoted as A) |  | 
12 | 14.3 | CCCN1CC(=O)NC2(CCCC2)C(=O)N(C)[C@@H](C2CCCC2)C(=O)N(C)[C@H](C(=O)N2CCOCC2)CC(=O)N(C)[C@@H](CC(C)C)C(=O)N[C@@H]([C@@H](C)CC)C(=O)N(C)[C@@H](C)C(=O)N2CC[C@H]2C(=O)N(CCC)[C@@H](Cc2ccc(C(F)(F)F)cc2)C(=O)N(C)CC(=O)N[C@@H](CCc2ccc(C(F)(F)F)c(Cl)c2)C1=O [PP0288] ([NMeL]I[NMeA][Aze][NPrPhe(4-CF3)][Sar][hPhe(3-Cl-4-CF3)][NPrGly][Ac5c][NMeGly(cPent)][NMeD]-Morpholide; lactam N-11) |  |  | B (a compound having 3 or more and less than 10 is denoted as B) | C (A compound having a KD ratio of 0.1 or more and less than 3 is denoted as C) |  | 
13 | 12.1 | CCCN1C(=O)[C@@H]2CCN2C(=O)CN(C)C(=O)[C@H]([C@@H](C)CC)NC(=O)[C@H](CC(C)C)N(C)C(=O)C[C@@H](C(=O)N2CCOCC2)N(C)C(=O)[C@H](C2CCCC2)N(C)C(=O)C2(CCCC2)NC(=O)[C@@H]2C[C@H](C)CN2C(=O)[C@H](CCc2ccc(C(F)(F)F)c(Cl)c2)NC(=O)CN(C)C(=O)[C@@H]1Cc1ccc(C(F)(F)F)cc1 [PP0457] ([NMeL]I[Sar][Aze][NPrPhe(4-CF3)][Sar][hPhe(3-Cl-4-CF3)][Pro(4S-Me)][Ac5c][NMeGly(cPent)][NMeD]-Morpholide; lactam N-11) | B (a compound having 3 or more and less than 10 is denoted as B) | C (A compound having a KD ratio of 0.1 or more and less than 3 is denoted as C) |  |  |  | 
14 | 15.9 | CCO[C@@H]1C[C@H]2C(=O)NC3(CC(C)(C)C3)C(=O)N(C)[C@@H](C(CC)CC)C(=O)N(C)[C@H](C(=O)N(C)C)CC(=O)N(C)[C@H]3CCCC/C=C/c4ccc(cc4)C[C@@H](C(=O)N(C)CC(=O)N[C@@H](CCc4ccc(Cl)c(Cl)c4)C(=O)N2C1)N1CC/C=C\C[C@@H](C1=O)N(C)C(=O)CN(C)C(=O)[C@H]([C@@H](C)CC)NC3=O [PP3045] |  |  | A (a compound having 10 or more and less than 20 is denoted as A) | AA (a compound having 20 or more is denoted as AA) |  | 
15 | 7.5 | CCC[C@H]1C(=O)N[C@@H](C2CCCC2)C(=O)N(C)CC(=O)N(C)[C@H]2C/C=C\CCN(C2=O)[C@@H](Cc2ccc(C)cc2)C(=O)N(C)CC(=O)N[C@@H](CCc2ccc(C(F)(F)F)c(OC)c2)C(=O)N2C[C@H](OCC)C[C@H]2C(=O)NC2(CC(C)(C)C2)C(=O)N(C)[C@@H](C2CCCC2)C(=O)N(C)[C@H](C(=O)N(C)C)CC(=O)N1C [PP2992] |  |  | A (a compound having 10 or more and less than 20 is denoted as A) | AA (a compound having 20 or more is denoted as AA) |  | 
